Measurements reported in the NIST ThermoML archive (doi:10.1021/je900550v).

Details: 101.33 kPa, Liquid; for speed of sound: Sing-around technique in a fixed-path interferometer; for mass density: Vibrating tube method

CC(=O)[O-].C[NH2+]CCO [N-methyl-2-hydroxyethylammonium acetate]
Details | mass density [kg/m3] | speed of sound [m/s] | viscosity [mPa·s]
278.15 K | 1112.83 | 1848.3 | –
278.4 K | 1112.68 | 1847.6 | –
278.65 K | 1112.54 | 1846.8 | –
278.9 K | 1112.38 | 1846.1 | –
279.15 K | 1112.23 | 1845.4 | –
279.4 K | 1112.08 | 1844.7 | –
279.65 K | 1111.93 | 1843.9 | –
279.9 K | 1111.78 | 1843.2 | –
280.15 K | 1111.63 | 1842.5 | –
280.4 K | 1111.48 | 1841.8 | –
280.65 K | 1111.33 | 1841 | –
280.9 K | 1111.18 | 1840.3 | –
281.15 K | 1111.03 | 1839.6 | –
281.4 K | 1110.88 | 1838.9 | –
281.65 K | 1110.74 | 1838.2 | –
281.9 K | 1110.58 | 1837.5 | –
282.15 K | 1110.43 | 1836.8 | –
282.4 K | 1110.28 | 1836.1 | –
282.65 K | 1110.13 | 1835.4 | –
282.9 K | 1109.98 | 1834.7 | –
283.15 K | 1109.83 | 1834 | –
283.4 K | 1109.68 | 1833.3 | –
283.65 K | 1109.53 | 1832.6 | –
283.9 K | 1109.38 | 1832 | –
284.15 K | 1109.22 | 1831.3 | –
284.4 K | 1109.07 | 1830.6 | –
284.65 K | 1108.92 | 1829.9 | –
284.9 K | 1108.77 | 1829.2 | –
285.15 K | 1108.62 | 1828.6 | –
285.4 K | 1108.47 | 1827.9 | –
285.65 K | 1108.32 | 1827.2 | –
285.9 K | 1108.17 | 1826.5 | –
286.15 K | 1108.02 | 1825.9 | –
286.4 K | 1107.86 | 1825.2 | –
286.65 K | 1107.71 | 1824.5 | –
286.9 K | 1107.56 | 1823.8 | –
287.15 K | 1107.41 | 1823.2 | –
287.4 K | 1107.26 | 1822.5 | –
287.65 K | 1107.11 | 1821.8 | –
287.9 K | 1106.95 | 1821.2 | –
288.15 K | 1106.8 | 1820.5 | 211.24
288.4 K | 1106.65 | 1819.9 | –
288.65 K | 1106.5 | 1819.2 | –
288.9 K | 1106.35 | 1818.6 | –
289.15 K | 1106.19 | 1817.9 | –
289.4 K | 1106.04 | 1817.3 | –
289.65 K | 1105.89 | 1816.6 | –
289.9 K | 1105.73 | 1816 | –
290.15 K | 1105.58 | 1815.3 | –
290.4 K | 1105.43 | 1814.7 | –
290.65 K | 1105.28 | 1814 | –
290.9 K | 1105.13 | 1813.4 | –
291.15 K | 1104.97 | 1812.7 | –
291.4 K | 1104.82 | 1812.1 | –
291.65 K | 1104.67 | 1811.4 | –
291.9 K | 1104.51 | 1810.8 | –
292.15 K | 1104.36 | 1810.1 | –
292.4 K | 1104.21 | 1809.5 | –
292.65 K | 1104.05 | 1808.8 | –
292.9 K | 1103.9 | 1808.2 | –
293.15 K | – | – | 145.8
